pIC50: −log10 of the molar value.
Assays:
[1] = molecular target: hGYS1 enzyme (recombinant hGYS1/GN1 protein) (Homo sapiens (Human), UniProt P13807); assay: GYS1 coupled enzyme assay (PK/LDH); type: biochemical; conditions: hGYS1/GN1 50 nM, UDP-Glucose 0.8 mM, G6P 1 mM; geometric mean of at least 2 runs
[2] = system: hGYS1 enzyme / glycogen synthesis in HeLa cells; assay: GYS1 cell based assay (glycogen synthesis, Glucose-glo); parameters: species or system human; conditions: Homo sapiens, HeLa, 24 h, 24 h incubation, 20 mM glucose, geometric mean of at least 2 runs
Method in brief: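 HeLa cells starved 24 h in medium containing only 1× Glutamax were plated onto compound in medium with 20 mM glucose (1% DMSO final) for 24 h, 37 °C, 5% CO2. Acid lysates were Tris-quenched, glucoamylase-digested (pH 5.3, 1 h, 37 °C) and read by Glucose-glo luminescence. IC50 came from Hill fits, as geometric mean of ≥2 runs.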

[3] = molecular target: hGYS2 enzyme (recombinant hGYS2/GN1 protein) (Homo sapiens (Human), UniProt P54840); assay: GYS2 coupled enzyme assay (PK/LDH); type: biochemical; conditions: geometric mean of at least 2 assay runs on separate days, read-out: Avg_IC50
Sequence of hGYS2 enzyme (recombinant hGYS2/GN1 protein) (P54840 whole entry): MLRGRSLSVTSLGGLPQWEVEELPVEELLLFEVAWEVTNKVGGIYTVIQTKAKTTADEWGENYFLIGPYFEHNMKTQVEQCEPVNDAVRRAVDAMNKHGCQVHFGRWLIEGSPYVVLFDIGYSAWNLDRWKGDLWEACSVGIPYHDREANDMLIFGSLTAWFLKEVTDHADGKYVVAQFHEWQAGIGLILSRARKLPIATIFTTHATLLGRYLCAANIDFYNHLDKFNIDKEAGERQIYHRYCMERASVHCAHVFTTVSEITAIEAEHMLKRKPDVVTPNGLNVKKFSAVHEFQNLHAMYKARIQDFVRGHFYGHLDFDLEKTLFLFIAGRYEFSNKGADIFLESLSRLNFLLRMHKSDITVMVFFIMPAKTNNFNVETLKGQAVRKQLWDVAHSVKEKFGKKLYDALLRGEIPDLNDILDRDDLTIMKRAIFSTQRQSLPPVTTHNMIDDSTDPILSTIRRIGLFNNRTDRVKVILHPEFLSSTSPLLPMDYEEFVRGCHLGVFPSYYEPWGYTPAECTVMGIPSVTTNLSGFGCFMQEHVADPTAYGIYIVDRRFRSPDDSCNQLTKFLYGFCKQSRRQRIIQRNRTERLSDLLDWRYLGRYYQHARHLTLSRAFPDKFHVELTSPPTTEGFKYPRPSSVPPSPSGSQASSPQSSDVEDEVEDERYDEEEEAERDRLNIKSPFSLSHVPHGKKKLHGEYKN
Sequence of hGYS2 enzyme (recombinant hGYS2/GN1 protein) (P46976 whole entry partner): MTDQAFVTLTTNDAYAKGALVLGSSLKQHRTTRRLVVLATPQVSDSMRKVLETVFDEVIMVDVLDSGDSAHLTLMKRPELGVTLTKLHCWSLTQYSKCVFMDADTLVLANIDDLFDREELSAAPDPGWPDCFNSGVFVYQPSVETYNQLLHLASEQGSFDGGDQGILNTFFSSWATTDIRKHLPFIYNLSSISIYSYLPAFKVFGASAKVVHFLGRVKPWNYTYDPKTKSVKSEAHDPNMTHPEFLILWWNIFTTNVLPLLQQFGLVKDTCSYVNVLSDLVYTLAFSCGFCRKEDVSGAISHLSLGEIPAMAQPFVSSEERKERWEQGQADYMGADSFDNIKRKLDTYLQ
Method in brief: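 hGYS2/GN1 200 nM; UDP-Glc 2 mM; glycogen 0.2%; G6P 2 mM; PEP 2 mM, NADH 0.6 mM, PK/LDH 20 U/mL. 50 mM Tris pH 7.5, MgCl2, KCl, BSA, TCEP, 2.5% DMSO. Kinetic A340, 10 min. IC50 = geomean of ≥2 runs.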

Sequence of hGYS1 enzyme (recombinant hGYS1/GN1 protein) (P13807 whole entry): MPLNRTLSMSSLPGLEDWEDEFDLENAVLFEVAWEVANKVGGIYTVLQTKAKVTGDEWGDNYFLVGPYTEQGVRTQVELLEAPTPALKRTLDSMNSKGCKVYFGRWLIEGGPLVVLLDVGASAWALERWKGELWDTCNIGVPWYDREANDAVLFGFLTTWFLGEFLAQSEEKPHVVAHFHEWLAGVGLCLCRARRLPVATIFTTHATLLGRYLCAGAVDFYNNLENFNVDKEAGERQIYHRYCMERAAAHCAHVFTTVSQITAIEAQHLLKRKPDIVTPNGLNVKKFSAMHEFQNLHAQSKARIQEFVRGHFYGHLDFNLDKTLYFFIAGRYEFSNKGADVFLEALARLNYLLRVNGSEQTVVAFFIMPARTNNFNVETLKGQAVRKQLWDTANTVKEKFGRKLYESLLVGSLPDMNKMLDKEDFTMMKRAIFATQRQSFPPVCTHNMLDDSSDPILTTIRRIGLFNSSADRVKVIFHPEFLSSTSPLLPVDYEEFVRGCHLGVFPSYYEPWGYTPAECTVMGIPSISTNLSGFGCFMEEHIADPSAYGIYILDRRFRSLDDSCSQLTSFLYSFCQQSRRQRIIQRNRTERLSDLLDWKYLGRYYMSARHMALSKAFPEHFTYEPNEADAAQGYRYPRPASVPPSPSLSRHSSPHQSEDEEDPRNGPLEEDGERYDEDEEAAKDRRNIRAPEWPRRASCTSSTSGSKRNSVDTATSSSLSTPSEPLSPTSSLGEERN
Sequence of hGYS1 enzyme (recombinant hGYS1/GN1 protein) (P46976 whole entry partner): as the sequence (P46976 whole entry partner) above

Row | Compound | pIC50 [1] | pIC50 [2] | pIC50 [3]
1 | O=C(N[C@@H](c1ccccc1)c1ccc(C2CC2)c(F)c1)[C@@H]1C[C@@H](F)CN1C(=O)COC(=O)N1CCN(CC2CC2)CC1 [Compound 447, 2-[(2S,4R)-2-{[(S)-(4-cyclopropyl-3-fluorophenyl)(phenyl)methyl]carbamoyl}-4-fluoropyrrolidin-1-yl]-2-oxoethyl 4-(cyclopropylmethyl) piperazine-1-carboxylate] | 7.02 | 5.27 | < 4.00
2 | COCCN1CCN(C(=O)OCC(=O)N2C[C@H](F)C[C@H]2C(=O)N[C@@H](c2ccccc2)c2ccc(C3CC3)c(F)c2)CC1 [Compound 448, 2-[(2S,4R)-2-{[(S)-(4-cyclopropyl-3-fluorophenyl)(phenyl)methyl]carbamoyl}-4-fluoropyrrolidin-1-yl]-2-oxoethyl 4-(2-methoxyethyl)piperazine-1-carboxylate] | 7.15 | 5.87 | < 4.00
3 | Cn1c(=O)ccn(CC(=O)N2C[C@H](F)C[C@H]2C(=O)N[C@@H](c2ccccc2)c2ccc(C3CC3)c(F)c2)c1=O [Compound 449, (2S,4R)-N-[(S)-(4-cyclopropyl-3-fluorophenyl)(phenyl)methyl]-4-fluoro-1-[2-(3-methyl-2,4-dioxo-1,2,3,4-tetrahydropyrimidin-1-yl)acetyl]pyrrolidine-2-carboxamide] | 7.41 | 6.15 | < 4.00
4 | O=C(N[C@@H](c1ccccc1)c1ccc(C2CC2)c(F)c1)[C@@H]1C[C@@H](F)CN1C(=O)Cn1nnc2ccccc21 [Compound 450, (2S,4R)-1-[2-(1H-1,2,3-benzotriazol-1-yl)acetyl]-N-[(S)-(4-cyclopropyl-3-fluorophenyl)(phenyl)methyl]-4-fluoropyrrolidine-2-carboxamide] | 7.03 | 5.76 | < 4.00
5 | O=C(N[C@@H](c1ccccc1)c1ccc(C2CC2)c(F)c1)[C@@H]1C[C@@H](F)CN1C(=O)COC(=O)N1CCC1 [Compound 451, 2-[(2S,4R)-2-{[(S)-(4-cyclopropyl-3-fluorophenyl)(phenyl)methyl]carbamoyl}-4-fluoropyrrolidin-1-yl]-2-oxoethyl azetidine-1-carboxylate] | 7.02 | 5.80 | < 4.00
6 | O=C(N[C@@H](c1ccccc1)c1ccc(C2CC2)c(F)c1)[C@@H]1C[C@@H](F)CN1C(=O)CNC(=O)N1CCOCC1 [Compound 452, N-{2-[(2S,4R)-2-{[(S)-(4-cyclopropyl-3-fluorophenyl)(phenyl)methyl]carbamoyl}-4-fluoropyrrolidin-1-yl]-2-oxoethyl} morpholine-4-carboxamide] | 7.40 | 6.01 | < 4.00
7 | O=C(N[C@@H](c1ccccc1)c1ccc(C2CC2)c(F)c1)[C@@H]1C[C@@H](F)CN1C(=O)CN1Cc2ccccc2C1=O [Compound 453, (2S,4R)-N-[(S)-(4-cyclopropyl-3-fluorophenyl)(phenyl)methyl]-4-fluoro-1-[2-(1-oxo-2,3-dihydro-1H-isoindol-2-yl)acetyl] pyrrolidine-2-carboxamide] | 7.11 | 5.74 | < 4.00
8 | O=C(N[C@@H](c1ccccc1)c1ccc(C2CC2)c(F)c1)[C@@H]1C[C@@H](F)CN1C(=O)CN1C(=O)Cc2ccccc21 [Compound 454, (2S,4R)-N-[(S)-(4-cyclopropyl-3-fluorophenyl)(phenyl)methyl]-4-fluoro-1-[2-(2-oxo-2,3-dihydro-1H-indol-1-yl)acetyl]pyrrolidine-2-carboxamide] | 7.14 | 5.80 | < 4.00
9 | CN1C(=O)C(CC(=O)N2C[C@H](F)C[C@H]2C(=O)N[C@@H](c2ccccc2)c2ccc(C3CC3)c(F)c2)c2ccccc21 (stereo partly drawn) [Compound 455, (2S,4R)-N-[(S)-(4-cyclopropyl-3-fluorophenyl)(phenyl)methyl]-4-fluoro-1-[2-(1-methyl-2-oxo-2,3-dihydro-1H-indol-3-yl)acetyl]pyrrolidine-2-carboxamide] | 6.54 | 5.44 | < 4.00
10 | O=C(N[C@@H](c1ccccc1)c1ccc(C2CC2)c(F)c1)[C@@H]1C[C@@H](F)CN1C(=O)Cn1c(=O)[nH]c2ccccc21 [Compound 456, (2S,4R)-N-[(S)-(4-cyclopropyl-3-fluorophenyl)(phenyl)methyl]-4-fluoro-1-[2-(2-oxo-2,3-dihydro-1H-1,3-benzodiazol-1-yl)acetyl]pyrrolidine-2-carboxamide] | 7.26 | 5.97 | < 4.00
11 | Cn1c(=O)n(CC(=O)N2C[C@H](F)C[C@H]2C(=O)N[C@@H](c2ccccc2)c2ccc(C3CC3)c(F)c2)c2ccccc21 [Compound 457, (2S,4R)-N-[(S)-(4-cyclopropyl-3-fluorophenyl)(phenyl)methyl]-4-fluoro-1-[2-(3-methyl-2-oxo-2,3-dihydro-1H-1,3-benzodiazol-1-yl)acetyl] pyrrolidine-2-carboxamide] | 7.49 | 6.14 | < 4.00
12 | O=C(N[C@@H](c1ccccc1)c1ccc(C2CC2)c(F)c1)[C@@H]1C[C@@H](F)CN1C(=O)Cc1n[nH]c2ccccc12 [Compound 458, (2S,4R)-N-[(S)-(4-cyclopropyl-3-fluorophenyl)(phenyl)methyl]-4-fluoro-1-[2-(1H-indazol-3-yl)acetyl]pyrrolidine-2-carboxamide] | 7.15 | 5.88 | < 4.00
13 | Cn1nc(CC(=O)N2C[C@H](F)C[C@H]2C(=O)N[C@@H](c2ccccc2)c2ccc(C3CC3)c(F)c2)c2ccccc21 [Compound 459, (2S,4R)-N-[(S)-(4-cyclopropyl-3-fluorophenyl)(phenyl)methyl]-4-fluoro-1-[2-(1-methyl-1H-indazol-3-yl)acetyl]pyrrolidine-2-carboxamide] | 7.55 | 6.12 | < 4.00
14 | Cn1c(CC(=O)N2C[C@H](F)C[C@H]2C(=O)N[C@@H](c2ccccc2)c2ccc(C3CC3)c(F)c2)cc2ccccc21 [Compound 462, (2S,4R)-N-[(S)-(4-cyclopropyl-3-fluorophenyl)(phenyl)methyl]-4-fluoro-1-[2-(1-methyl-1H-indol-2-yl)acetyl]pyrrolidine-2-carboxamide] | 7.62 | 6.19 | < 4.00

Results, then the compound that gave them:

Row | pIC50 [1] | pIC50 [2] | pIC50 [3] | Compound
15 | 7.60 | 6.17 | < 4.00 | Cn1cc(CC(=O)N2C[C@H](F)C[C@H]2C(=O)N[C@@H](c2ccccc2)c2ccc(C3CC3)c(F)c2)c2ccccc21 [Compound 463, (2S,4R)-N-[(S)-(4-cyclopropyl-3-fluorophenyl)(phenyl)methyl]-4-fluoro-1-[2-(1-methyl-1H-indol-3-yl)acetyl]pyrrolidine-2-carboxamide]
16 | 7.64 | 6.19 | < 4.00 | Cc1nc2ccccc2n1CC(=O)N1C[C@H](F)C[C@H]1C(=O)N[C@@H](c1ccccc1)c1ccc(C2CC2)c(F)c1 [Compound 464, (2S,4R)-N-[(S)-(4-cyclopropyl-3-fluorophenyl)(phenyl)methyl]-4-fluoro-1-[2-(2-methyl-1H-1,3-benzodiazol-1-yl)acetyl]pyrrolidine-2-carboxamide]
17 | 6.26 | 5.22 | < 4.00 | O=C(N[C@@H](c1ccccc1)c1ccc(C2CC2)c(F)c1)[C@@H]1C[C@@H](F)CN1C(=O)CN1CCNCC1=O [Compound 465, (2S,4R)-N-[(S)-(4-cyclopropyl-3-fluorophenyl)(phenyl)methyl]-4-fluoro-1-[2-(2-oxopiperazin-1-yl)acetyl]pyrrolidine-2-carboxamide]
18 | 6.62 | 5.63 | < 4.00 | O=C(N[C@@H](c1ccccc1)c1ccc(C2CC2)c(F)c1)[C@@H]1C[C@@H](F)CN1C(=O)CN1CCN(CC(F)(F)F)CC1=O [Compound 466, (2S,4R)-N-[(S)-(4-cyclopropyl-3-fluorophenyl)(phenyl)methyl]-4-fluoro-1-{2-[2-oxo-4-(2,2,2-trifluoroethyl)piperazin-1-yl]acetyl}pyrrolidine-2-carboxamide]
19 | 6.49 | 5.32 | < 4.00 | O=C1Nc2ccccc2C1CC(=O)N1C[C@H](F)C[C@H]1C(=O)N[C@@H](c1ccccc1)c1ccc(C2CC2)c(F)c1 (stereo partly drawn) [Compound 467, (2S,4R)-N-[(S)-(4-cyclopropyl-3-fluorophenyl)(phenyl)methyl]-4-fluoro-1-[2-(2-oxo-2,3-dihydro-1H-indol-3-yl)acetyl]pyrrolidine-2-carboxamide]
20 | 7.04 | 5.84 | < 4.00 | Cc1cn(CC(=O)N2C[C@H](F)C[C@H]2C(=O)N[C@@H](c2ccccc2)c2ccc(C3CC3)c(F)c2)cn1 [Compound 468, (2S,4R)-N-[(S)-(4-cyclopropyl-3-fluorophenyl)(phenyl)methyl]-4-fluoro-1-[2-(4-methyl-1H-imidazol-1-yl)acetyl]pyrrolidine-2-carboxamide]
21 | 7.21 | 5.93 | < 4.00 | CCn1cc(NCC(=O)N2C[C@H](F)C[C@H]2C(=O)N[C@@H](c2ccccc2)c2ccc(C3CC3)c(F)c2)nn1 [Compound 469, (2S,4R)-N-[(S)-(4-cyclopropyl-3-fluorophenyl)(phenyl)methyl]-1-{2-[(1-ethyl-1H-1,2,3-triazol-4-yl)amino]acetyl}-4-fluoropyrrolidine-2-carboxamide]
